Measured values reported in patent US20240366598A1, “GLUCOSE-DEPENDENT INSULINOTROPIC POLYPEPTIDE RECEPTOR ANTAGONISTS AND USES THEREOF” (Pfizer Inc., priority 2023, published 2024).
pIC50: −log10 of the molar value. Counter-ions that a name gives are not always drawn.

Molecular target: T1, human Glucose-dependent Insulinotropic Polypeptide Receptor (hGIPR) (Homo sapiens, UniProt P48546)
T1 sequence (P48546 22-466): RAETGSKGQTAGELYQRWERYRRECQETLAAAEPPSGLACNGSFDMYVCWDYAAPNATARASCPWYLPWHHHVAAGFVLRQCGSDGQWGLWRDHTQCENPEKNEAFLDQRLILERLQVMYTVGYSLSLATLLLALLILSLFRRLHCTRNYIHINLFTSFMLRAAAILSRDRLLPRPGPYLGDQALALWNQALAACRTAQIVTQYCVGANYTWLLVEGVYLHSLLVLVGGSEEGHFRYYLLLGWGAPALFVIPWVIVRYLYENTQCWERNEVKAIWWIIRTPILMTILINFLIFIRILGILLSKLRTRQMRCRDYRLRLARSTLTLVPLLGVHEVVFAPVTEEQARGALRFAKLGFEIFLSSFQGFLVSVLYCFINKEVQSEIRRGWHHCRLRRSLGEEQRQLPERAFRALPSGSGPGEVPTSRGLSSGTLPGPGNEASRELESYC
Assay: Functional in vitro GIPR antagonist potency assay (cAMP HTRF, CHO-K1 cells stably expressing hGIPR, hGIP stimulation at about EC80)
Assay type: cell-based
Conditions: geometric mean, hGIP at estimated EC80, examples marked ^2: overall geometric mean of multiple forms (including salts) tested
Outline: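 HTRF quantification of cAMP after stimulation with hGIP at an estimated EC80 for 30 min at 37 °C. Before stimulation, hGIPR-expressing CHO-K1 cells were exposed 2 h to test compound in IBMX-containing buffer, with 0.5% DMSO final. Percent effect is referenced to agonist alone (0%) and to 80 μM of a reference antagonist (100%), and runs required the agonist concentration to fall within the on-the-day EC50–EC90.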

Row | Structure (SMILES) | pIC50
1 | O=C(O)c1ccc(-c2ccc(NC(=O)[C@H]3CCCN3C(=O)Nc3ccc(C(F)(F)F)c(F)c3)cn2)cc1 [Example 215, 4-{5-[(1-{[3-fluoro-4-(trifluoromethyl)phenyl]carbamoyl}-D-prolyl)amino]pyridin-2-yl}benzoic acid] | 7.82
2 | O=C(O)c1cccc(-c2ccc(NC(=O)[C@H]3CCCN3C(=O)NCc3ccc(C(F)(F)F)c(F)c3)nc2)c1 [Example 223, 3-(6-{[1-({[3-fluoro-4-(trifluoromethyl)phenyl]methyl}carbamoyl)-D-prolyl]amino}pyridin-3-yl)benzoic acid] | 7.29
3 | CC(C)c1ccc(CNC(=O)N2CCC[C@@H]2C(=O)Nc2ccc(-c3cccc(C(=O)O)c3)cn2)cc1 [Example 224, 3-(6-{[1-{{[4-(propan-2-yl)phenyl]methyl}carbamoyl)-D-prolyl]amino}pyridin-3-yl) benzoic acid] | 7.10
4 | O=C(O)c1cccc(-c2ccc(NC(=O)[C@H]3CCCN3C(=O)NCc3ccc(C(F)(F)F)cc3)nc2)c1 [Example 225, 3-(6-{[1-({[4-(trifluoromethyl)phenyl]methyl}carbamoyl)-D-prolyl]amino}pyridin-3-yl)benzoic acid] | 7.29

Next, values leading:

Row | pIC50 | Structure (SMILES)
5 | 7.19 | Cc1cc(NC(=O)N2CCC[C@@H]2C(=O)Nc2ccc(-c3ccc(C(=O)O)nc3C)cc2)ncc1C(C)C [Example 216, 6-methyl-5-{4-[(1-{[4-methyl-5-(propan-2-yl)pyridin-2-yl]carbamoyl}-D-prolyl)amino]phenyl}pyridine-2-carboxylic acid, trifluoroacetate salt]
6 | 8.54 | Cc1cc(NC(=O)[C@H]2CCCN2C(=O)Nc2ccc(C(C)C)c(F)c2)ccc1-c1ccc(C(=O)O)cc1 [Example 219, 4′-[(1-{[3-fluoro-4-(propan-2-yl)phenyl]carbamoyl}-D-prolyl)amino]-2′-methyl[1,1′-biphenyl]-4-carboxylic acid]
7 | 7.00 | Cc1cc(NC(=O)N2CCC[C@@H]2C(=O)Nc2ccc(-c3ccc(C(=O)O)cc3)nc2)ncc1C(F)(F)F [Example 222, 4-{5-[(1-{[4-methyl-5-(trifluoromethyl)pyridin-2-yl]carbamoyl}-D-prolyl)amino]pyridin-2-yl}benzoic acid]
